Test results taken from a melting point compilation (Tetko et al.; mined from patent text by program, amines drawn as free bases though some values may be those of a salt).

Structure (SMILES) | melting point
CC(C)(C)Sc1c(CC(C)(C)C(=O)O)n(Cc2ccc(Cl)cc2)c2cc(OCc3ccc4ccccc4n3)ccc12 | 165 to 167 °C
CNC(=O)CNc1c(C)cccc1C | 52 to 54 °C
c1cnc2cc(C34CCCN3CCC4)oc2c1 | 39 to 41 °C
COCCOc1ccc(CCCOC(=O)NS(=O)(=O)NCCOC(C)C)c(Oc2ncc(C(F)(F)F)cc2Cl)c1 | 114 °C
CC(=O)Nc1c(C#N)c(Cl)c(C#N)n1C | 180 to 182 °C
COC1=CC(=O)CN(C)C1 | 71 to 72 °C
CCN(CC)C(=O)NC1CC2c3cccc4[nH]c(C(C)=O)c(c34)CC2N(C)C1 (stereo unspecified) | 114 to 116 °C
O=C1CCC2=C1C(c1ccc(Cl)c(Cl)c1)C1=C(CCS1)N2 (stereo unspecified) | > 260 °C
CN1CCN(c2ccc([N+](=O)[O-])c(CS(=O)(=O)c3ccccc3)n2)CC1 | 170 to 172 °C
CC(C)(C)c1nc2cc(N3CCOCC3)c(N=C=S)cc2s1 | 141 to 143 °C
CCOC(=O)Cn1c(=O)oc2c(O)cccc21 | 150 to 152 °C
N#CCC(=C(C#N)C#N)c1ccccc1 | 92 to 98 °C
Cc1cc(CO)ccc1NC(=O)N1CCN(c2ccc(NC(=O)Nc3ccccc3F)cc2)CC1 | 229 to 230 °C
CCn1nnc2c(sc3nc(C)ccc32)c1=O | 165 to 167 °C
COCCn1c(C)cc(C(=O)c2cccc(Cl)c2)c1C | 112 to 113 °C
COc1ccc(C(=O)CCC2CCN(C(C)=O)CC2)cc1N | 101 to 103 °C
O=C(Nc1cccc(S(=O)(=O)N(CCO)CCO)c1)c1cnn2c(C(F)(F)F)cc(-c3ccc(C(F)(F)F)cc3)nc12 | 209 °C
O=C(O)C(CCCN1C(=O)c2ccccc2S1(=O)=O)NS(=O)(=O)c1ccc(-c2ccc(Cl)cc2)cc1 (stereo unspecified) | 177 to 179 °C
Nc1cc(F)c(N2CCNCC2)cc1Cl | 110 °C
O=C(CO)Nc1nc(CN2CCC(c3c[nH]c4ccccc34)CC2)cs1 | 185 to 188 °C
C=CCOC1=NC2OC(C(=O)c3ccc(Cl)cc3Cl)=C(NC(N)=O)C2C=C1 (stereo unspecified) | 222 °C
O=C(Nc1ccc2nc(CN3CCCCC3)ccc2c1)c1ccc(-c2ccc(F)cc2F)cc1 | 181 to 182 °C
CCCOC(=O)c1c(-c2ccncc2)[nH]c(-c2ccncc2)c1C | 215 to 218 °C
CCSC(N)=C(C#N)C(N)=S | 200 to 201 °C
C=Cc1ccc(NC(=O)OC)nc1 | 146 to 148 °C
CC(=O)OC(C)c1ccc2occ(C#N)c(=O)c2c1 (stereo unspecified) | 148 to 149 °C

Structure (SMILES) | melting point
CCOC(=O)C(C)(C)Oc1ccc(CCCC(=O)NN(Cc2cc(F)cc(F)c2)C(N)=O)cc1 | 108 to 109 °C
CC(C)[C@@H]1C[C@@H]([C@H](CC2CCCCC2)N=[N+]=[N-])OC1=O | 38.5 to 39 °C
Cn1cc(C(O)(c2ccc3c(cnn3C(=O)NC3CC3)c2)C(F)(F)F)c2ccccc21 (stereo unspecified) | 116 to 118 °C
O=C(NCCOc1ccc(CC(Oc2ccccc2)C(=O)O)cc1)c1ccc(-c2ccc(C(F)(F)F)cc2)cc1 (stereo unspecified) | 217 to 218 °C
CC(C)(C)OC(=O)Nc1ccc(-c2ccccc2F)cc1[N+](=O)[O-] | 131 to 133 °C
Cc1ccc([C@@H](O)[C@@H]2[C@@H](C)CCCC2(C)C)cc1 | 78 to 79 °C
COC(=O)C1=C(C#N)NC(C)=C(P2(=O)OCCCO2)C1c1ccccc1[N+](=O)[O-] (stereo unspecified) | 228 to 229 °C
Fc1ccc2[nH]c3c(ccc4cc[nH]c43)c2c1 | > 250 °C
C#Cc1c(-c2ccc(OC(F)F)c(OC3CC3)c2)[nH]c2cn[nH]c(=O)c12 | > 300 °C
COc1ccc(Nc2ccnc(Nc3cc(OC)c(OC)c(OC)c3)n2)cc1OC | 86 °C
CCOC(=O)CCC1CCN(C(=O)[C@H](C)NC(=O)c2ccc(C(O)=NN)cc2)CC1 | 194 to 195 °C
NC(CC(=O)O)C(=O)N1C(=O)c2ccc(C(=O)O)cc2C1=O (stereo unspecified) | 242 to 243 °C
C[C@H](O)Cc1ncc[nH]1 | 119 to 121 °C
O=C1C=CCCC=CCCC=CCCC=C1 | 30 to 37 °C
Cc1oc(-c2ccco2)nc1COc1ccc(CCCn2ccnc2)cc1 | 89 to 90 °C
O=C(NCCO)c1cccc(-c2ccc3ccn(Cc4ccc(Cl)cc4Cl)c3n2)c1 | 161 to 162 °C
CON=Cc1ccc2c(c1)c1c(n2CCc2cccc(F)n2)CC[C@@H](NC(=O)C2CC2)C1 | 223 to 225 °C
Nc1cc(C(=O)O)cc(S)c1Oc1ccccc1 | 199 to 200 °C
COc1ccc(-c2nc3cc(F)ccc3s2)cc1OC(C)=O | 190 °C
CCn1cc(C(=O)O)c(=O)c2cc(F)c(F)c(C)c21 | 219 to 221 °C
O=C(O)C(=O)CC(=O)c1cccn1Cc1cccc(Cl)c1 | 159 to 161 °C
O=CN(O)C(CCCO)CS(=O)(=O)c1ccc(-c2ccc(C(F)(F)F)cc2)cc1 (stereo unspecified) | 139 to 140 °C
Cc1nn(C)c2cc(-c3nn(C(C)c4oc5ccccc5c(=O)c4-c4cccc(F)c4)c4ncnc(N)c34)ccc12 (stereo unspecified) | 270 to 272 °C
O=C1NCC2(CCNCC2)O1 | 95 to 96 °C
CC(C)(C)CC(=O)NCc1cccc2c1C(=O)N(C1CCC(=O)NC1=O)C2=O (stereo unspecified) | 145 to 147 °C
CC(C)C[C@H](NC(=O)OCc1ccccc1)C(=O)N[C@@H](Cc1ccccc1)C(=O)CSCc1ccco1 | 77 to 78 °C

Structure (SMILES) | melting point
CC(=O)SCC(Cc1ccccc1)C(=O)Nc1ccc(O)c(C(=O)O)c1 (stereo unspecified) | 185 to 188 °C
COc1c(C(=O)NC2CN3CCC2CC3)cc(Cl)c2c1CCN2 (stereo unspecified) | 107 to 109 °C
CC(Cn1ncc2ccc(OCc3ccccc3)cc21)O[Si](C)(C)C(C)(C)C (stereo unspecified) | 56 to 58 °C
CCOC(=O)c1[nH]c(-c2ccc(Cl)cc2)nc1C | 237 to 238 °C
CCC(CC)Nc1nc(C)nc(Oc2c(C)cc(C)cc2C)c1N | 248 to 250 °C
CC(=O)OC(n1cc(C#N)c(-c2cccc(Cl)c2Cl)c1)C(Cl)(Cl)Cl (stereo unspecified) | 111 to 113 °C
CC1=Cc2cc3c(cc2C(c2ccc([N+](=O)[O-])c(C)c2)=NN1C(=O)NC1CC1)OCO3 | 198 to 202 °C
CCCC(C)CNc1cccc(-c2ccnc3c(C(=O)c4cccs4)cnn23)c1 (stereo unspecified) | 133 to 135 °C
O=C(O)CNC(=O)c1cn2nc(NCCCN3CCC(OC(c4ccccc4)c4ccccc4)CC3)ccc2n1 | 171 °C
CCCCC(Cc1ccc(OCCNC(=O)c2ccc(-c3ccc(C=O)cc3)cc2)cc1)C(=O)O (stereo unspecified) | 122 to 124 °C
COc1c2c(c(OC)c(OC)c1OC)CCC(CCOc1ccccn1)CC2 | 132 to 135 °C
CCCc1c(Cl)c2cc(Br)ccc2oc1=O | 96 to 97 °C
Fc1ccc(N2CCC(N3CCN(c4cccc5cccnc45)CC3)CC2)c2ncccc12 | 224 °C
CC(=O)c1ccc2c(c1)C(C)(C)c1cccnc1O2 | 106 to 108 °C
N#CCN(CC#N)CCN(CC#N)CC#N | 131 to 132 °C
O=c1c2ccccc2ncn1NC(=S)Nc1ccc(Br)cc1 | 189 to 190 °C
Cc1c(Cc2cccc3ccccc23)c(=O)oc2cc(OCc3nnn[nH]3)cc(OCc3nnn[nH]3)c12 | 164 to 174 °C
CCO/C(=C\c1ccc(OCCc2ccc(OS(C)(=O)=O)cc2)c(OC)c1)C(=O)O | 147 °C
O=C1NCC(Cc2cccc(F)c2)O1 (stereo unspecified) | 77 to 78 °C
CCCC(CCC)n1c(CC)nc2c1c(=O)n(C)c(=O)n2-c1c(C)cc(C)cc1C | 195 to 196 °C
Nc1nc(N)c(-c2cccc(Cl)c2Cl)c(CO)n1 | 173 to 176 °C
CNC(=O)N1CCC(=NO)c2cc(Cl)ccc21 | 211 to 212 °C
Nc1ccc(-c2cc3c(Nc4ccc(Cl)cc4F)ncnc3o2)cc1 | 229 to 232 °C
CC(=O)NC[C@H]1CN(c2ccc(N3CCC(=C(C#N)n4cncn4)CC3)c(F)c2)C(=O)O1 | 194 to 196 °C
Cc1cc(F)ccc1OC1CC(C#CC(C)N(O)C(N)=O)C1 (single isomer, unassigned; (+)) | 139 to 140 °C
CC(C)CCCC(C)C1CCC2C3CC=C4CC(OCC(=O)O)CCC4(C)C3CCC12C (stereo unspecified) | 160 °C

Structure (SMILES) | melting point
O=C1OC(=O)C2CCCC1C2 | 138 to 140 °C
N#Cc1ncn2c(C(F)(F)F)cc(-c3ccc(Cl)cc3Cl)nc12 | 139 °C
Cc1oc(-c2ccccc2)nc1CCOc1ccc(C[C@H](NC(=O)C=Cc2ccc(F)cc2F)C(=O)O)cc1 | 199 to 201 °C
O=C(c1ccccc1O)c1cccc2[nH]ccc12 | 165 °C
O=C1CCC(N2Cc3c(OCc4ccc5ccccc5c4)cccc3C2=O)C(=O)N1 (stereo unspecified) | 277 to 279 °C
COC(=O)c1sc2ccc(N)cc2c1N | 128 to 130 °C
FC(F)(F)Sc1c(-c2ccc(Cl)cc2)[nH]c(Br)c1Br | 107 to 113 °C
COc1cc(CCNCc2ccccc2)c(CC(=O)O)cc1OC | 213 to 214 °C
COc1ccc(COC(=O)n2c(SCc3ccc(C)cn3)nc3cscc32)cc1 | 120 to 121 °C
CCOC(=O)c1cnn(-c2ccc(OCC(C)(C)C)c(C#N)c2)c1Cl | 90 to 92 °C
NC(=NCC(F)(F)F)Nc1ccn(CCO)n1 | 82 °C
Cc1oc(C2CCCCC2)nc1C(=O)O | 173 to 174 °C
NCCCCOc1cccc(CN2CCCCC2)c1 | 92 to 93 °C
Cc1nc2sccn2c(=O)c1CCN1CCC2Nc3ccccc3C2C1 (stereo unspecified) | 152 °C
COc1ccc(OCC(O)CN2CCC(Nc3nc4ccccc4n3Cc3ccc(F)cc3)CC2)cc1 (stereo unspecified) | 174 °C
COc1cc(-c2ccccc2C(F)(F)F)c(Cl)cc1C(=O)N1Cc2ccc(C(=O)N(C)CC(O)C(O)C(O)C(O)CO)n2Cc2ccccc21 (stereo unspecified) | 150 to 151 °C
CC(C(=S)c1cc(NC=O)ccn1)S(C)=O (stereo unspecified) | 132 °C
Cc1nc2c(N)nc3ccccc3c2n1CCCNS(C)(=O)=O | 236 to 238 °C
CCCSc1ncc(CCC(=O)O)n1Cc1ccccc1Cl | 169 to 170 °C
N#CC(C(=O)c1ccc(C(F)(F)F)cc1S(=O)(=O)C1CCCCC1)C(=O)C1CC1 (stereo unspecified) | 60 to 62 °C
CCOC1SCN(c2ccc(Cl)c(Cl)c2)C1=O (stereo unspecified) | 61 to 65 °C
O=C(OCc1ccccc1)c1ccc2cc(-c3ccc(CC(O)CO)c(C45CC6CC(CC(C6)C4)C5)c3)ccc2c1 (stereo unspecified) | 200 °C
COc1ccc(C(=O)C23CCCCC2C(=O)O3)cc1 (stereo unspecified) | 77.5 to 78.5 °C
